Reference: patent US7514448B2, “Azaindoles useful as inhibitors of rock and other protein kinases” (Vertex Pharmaceuticals Incorporated, priority 2004, dated 2009)

Tests used:
[1] = target: PKA (Homo sapiens, UniProt P17612); test: PKA inhibition assay, coupled enzyme; type: biochemical; details: average Ki if more than one determined
Protocol: Compounds were screened for their ability to inhibit PKA using a standard coupled enzyme assay (Fox et al., Protein Sci, 1998, 7, 2249). Assays were carried out in a mixture of 100 mM HEPES (pH 7.5), 10 mM MgCl2, 25 mM NaCl, 1 mM DTT and 3% DMSO. Final substrate concentrations in the assay were 50 μM ATP (Sigma Chemicals) and 80 μM peptide (Kemptide, American Peptide, Sunnyvale, Calif.). Assays were carried out at 30° C. and 18 nM PKA. Final concentrations of the components of the coupled enzyme system were 2.5 mM phosphoenolpyruvate, 300 μM NADH, 30 μg/ml pyruvate kinase and 10 μg/ml lactate dehydrogenase.
An assay stock buffer solution was prepared containing all of the reagents listed above, with the exception of ATP, and the test compound of the present invention. […] The plate was preincubated for 10 minutes at 30° C. and the reaction initiated by addition of 5 μl of ATP (final concentration 50 μM). Initial reaction rates were determined with a Molecular Devices SpectraMax Plus plate reader over a 15 minute time course. IC50 and Ki data were calculated from non-linear regression analysis using the Prism software package (GraphPad Prism version 3.0a for Macintosh, GraphPad Software, San Diego Calif., USA).

[2] = target: ROCK (Homo sapiens, UniProt Q13464); test: ROCK radioactive assay ("33P"); type: biochemical; details: radioactive assay; average Ki if more than one determined; read-out: ROCK 33P Ki
Description: If more than one value of Ki has been determined, the average Ki is indicated. If no value is indicated, then the Ki was not determined.

ROCK, sequence (Q13464 whole entry): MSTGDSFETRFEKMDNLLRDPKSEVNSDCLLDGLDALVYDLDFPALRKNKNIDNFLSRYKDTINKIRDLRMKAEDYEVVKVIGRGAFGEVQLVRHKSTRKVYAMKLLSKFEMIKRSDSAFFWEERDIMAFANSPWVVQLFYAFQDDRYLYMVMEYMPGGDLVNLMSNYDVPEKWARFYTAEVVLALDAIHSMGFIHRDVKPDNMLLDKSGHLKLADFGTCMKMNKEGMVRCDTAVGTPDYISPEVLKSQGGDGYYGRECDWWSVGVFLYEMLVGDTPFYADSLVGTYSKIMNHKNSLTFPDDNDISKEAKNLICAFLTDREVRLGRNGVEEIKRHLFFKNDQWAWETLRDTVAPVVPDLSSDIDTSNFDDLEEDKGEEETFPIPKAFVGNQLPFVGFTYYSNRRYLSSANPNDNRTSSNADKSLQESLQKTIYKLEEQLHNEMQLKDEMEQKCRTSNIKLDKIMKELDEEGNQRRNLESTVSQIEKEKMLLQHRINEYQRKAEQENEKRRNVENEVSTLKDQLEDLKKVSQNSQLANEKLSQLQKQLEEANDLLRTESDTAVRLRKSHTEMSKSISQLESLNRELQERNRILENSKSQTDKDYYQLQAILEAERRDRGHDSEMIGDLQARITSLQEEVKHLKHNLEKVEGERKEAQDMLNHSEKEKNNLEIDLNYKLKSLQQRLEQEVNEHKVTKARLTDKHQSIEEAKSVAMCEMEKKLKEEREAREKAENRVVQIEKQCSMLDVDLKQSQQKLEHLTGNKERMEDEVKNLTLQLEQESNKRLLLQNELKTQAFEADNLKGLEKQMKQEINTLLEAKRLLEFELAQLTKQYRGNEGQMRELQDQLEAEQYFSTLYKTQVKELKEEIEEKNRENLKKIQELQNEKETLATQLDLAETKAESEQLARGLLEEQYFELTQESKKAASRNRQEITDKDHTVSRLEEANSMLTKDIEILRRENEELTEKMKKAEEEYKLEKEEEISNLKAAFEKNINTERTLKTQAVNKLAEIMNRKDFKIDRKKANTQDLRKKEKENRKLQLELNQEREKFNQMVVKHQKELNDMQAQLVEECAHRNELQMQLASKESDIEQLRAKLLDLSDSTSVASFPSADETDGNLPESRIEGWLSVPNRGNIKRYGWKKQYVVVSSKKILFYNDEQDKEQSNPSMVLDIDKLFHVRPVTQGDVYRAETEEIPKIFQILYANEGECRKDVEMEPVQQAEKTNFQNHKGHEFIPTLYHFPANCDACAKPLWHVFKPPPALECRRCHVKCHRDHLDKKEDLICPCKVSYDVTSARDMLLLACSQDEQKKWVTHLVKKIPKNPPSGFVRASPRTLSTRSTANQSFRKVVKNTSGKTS

| SMILES | Ki [1] | Ki [2] |
| --- | --- | --- |
| O=C(NCc1cccc(S(=O)(=O)N2CCOCC2)c1)c1csc(-c2c[nH]c3ncccc23)c1 [II-130] | 500 to 5000 nM | < 500 nM |
| CS(=O)(=O)Nc1cccc(CC(=O)Nc2nc(-c3c[nH]c4ncc(O)cc34)cs2)c1 [II-132] | 500 to 5000 nM | < 500 nM |
| CC(=O)Nc1nc(-c2c[nH]c3ncccc23)cs1 [II-134] | 500 to 5000 nM | < 500 nM |
| CN1CCN(CCOc2cccc(CC(=O)Nc3nc(-c4c[nH]c5ncc(F)cc45)cs3)c2)CC1 [II-136] | 500 to 5000 nM | < 500 nM |
| CN1CCN(CCCOc2cccc(CC(=O)Nc3nc(-c4c[nH]c5ncc(F)cc45)cs3)c2)CC1 [II-137] | 500 to 5000 nM | < 500 nM |
| COCC(=O)Nc1nc(-c2c[nH]c3ncccc23)cs1 [II-142] | 500 to 5000 nM | < 500 nM |
| CC(O)C(=O)Nc1nc(-c2c[nH]c3ncccc23)cs1 (stereo not shown) [II-143] | 500 to 5000 nM | < 500 nM |
| CO[C@@H](C)C(=O)Nc1nc(-c2c[nH]c3ncccc23)cs1 [II-144] | 500 to 5000 nM | < 500 nM |
| CC(=O)N[C@@H](C)C(=O)Nc1nc(-c2c[nH]c3ncccc23)cs1 [II-145] | 500 to 5000 nM | < 500 nM |
| O=C1CC[C@@H](C(=O)Nc2nc(-c3c[nH]c4ncccc34)cs2)O1 [II-146] | 500 to 5000 nM | < 500 nM |
| CC(=O)NCC(=O)Nc1nc(-c2c[nH]c3ncccc23)cs1 [II-149] | 500 to 5000 nM | < 500 nM |
| O=C1CCC(C(=O)Nc2nc(-c3c[nH]c4ncccc34)cs2)N1 (stereo not shown) [II-153] | 500 to 5000 nM | < 500 nM |
| CC(=O)N[C@H](C)C(=O)Nc1nc(-c2c[nH]c3ncccc23)cs1 [II-156] | 500 to 5000 nM | < 500 nM |
| O=C(CO)Nc1nc(-c2c[nH]c3ncccc23)cs1 [II-157] | 500 to 5000 nM | < 500 nM |
| CCC(=O)Nc1nc(-c2c[nH]c3ncccc23)cs1 [II-163] | 500 to 5000 nM | < 500 nM |
| CC(=O)NCCC(=O)Nc1nc(-c2c[nH]c3ncccc23)cs1 [II-164] | 500 to 5000 nM | < 500 nM |
| O=C(Nc1nc(-c2c[nH]c3ncccc23)cs1)C1CCNCC1 [II-174] | 500 to 5000 nM | < 500 nM |
| CNCC(=O)Nc1nc(-c2c[nH]c3ncccc23)cs1 [II-179] | < 500 nM | < 500 nM |
| NCCC(=O)Nc1nc(-c2c[nH]c3ncccc23)cs1 [II-180] | < 500 nM | < 500 nM |
| O=C(c1nc(-c2c[nH]c3ncccc23)cs1)N1CCNCC1 [II-181] | < 500 nM | < 500 nM |
| C[C@@H](CO)NC(=O)c1nc(-c2c[nH]c3ncccc23)cs1 [II-182] | 500 to 5000 nM | < 500 nM |
| CC(C)C(CO)NC(=O)c1nc(-c2c[nH]c3ncccc23)cs1 (stereo not shown) [II-183] | 500 to 5000 nM | < 500 nM |
| O=C(N[C@H](CO)c1ccccc1)c1nc(-c2c[nH]c3ncccc23)cs1 [II-184] | < 500 nM | < 500 nM |
| O=C(N[C@@H](CO)c1ccccc1)c1nc(-c2c[nH]c3ncccc23)cs1 [II-185] | 500 to 5000 nM | < 500 nM |
| O=C(NC1CCN(Cc2ccccc2)C1)c1nc(-c2c[nH]c3ncccc23)cs1 (stereo not shown) [II-186] | 500 to 5000 nM | < 500 nM |
| O=C(NC1CCNCC1)c1nc(-c2c[nH]c3ncccc23)cs1 [II-187] | < 500 nM | < 500 nM |
| O=C(CNCc1ccccc1)Nc1nc(-c2c[nH]c3ncccc23)cs1 [II-188] | < 500 nM | < 500 nM |
| NCCC(C(=O)Nc1nc(-c2c[nH]c3ncccc23)cs1)c1ccccc1 (stereo not shown) [II-189] | < 500 nM | < 500 nM |
| NCCC(C(=O)Nc1nc(-c2c[nH]c3ncccc23)cs1)c1ccc(F)cc1 (stereo not shown) [II-190] | < 500 nM | < 500 nM |

More lines, now with the values ahead:

| Ki [1] | Ki [2] | SMILES |
| --- | --- | --- |
| < 500 nM |  | COc1cccc(CC(=O)Nc2nc(-c3c[nH]c4ncccc34)cs2)c1 [I-2] |
| < 500 nM |  | O=C(Cc1cccc(O)c1)Nc1nc(-c2c[nH]c3ncccc23)cs1 [I-12] |
| < 500 nM | < 500 nM | O=C(Cc1ccccc1)Nc1nc(-c2c[nH]c3ncc(O)cc23)cs1 [II-131] |
| < 500 nM | < 500 nM | N#CC1(C(=O)Nc2nc(-c3c[nH]c4ncccc34)cs2)CC1 [II-133] |
| < 500 nM | < 500 nM | O=C(Cc1cccc(OCCCC2CCNCC2)c1)Nc1nc(-c2c[nH]c3ncc(F)cc23)cs1 [II-135] |
| < 500 nM | < 500 nM | O=C1NCC(C(=O)Nc2nc(-c3c[nH]c4ncccc34)cs2)N1 (stereo not shown) [II-147] |
| < 500 nM | < 500 nM | O=C1CC[C@@H](C(=O)Nc2nc(-c3c[nH]c4ncccc34)cs2)N1 [II-148] |
| < 500 nM | < 500 nM | COc1ccc(CC(=O)Nc2nc(-c3c[nH]c4ncc(F)cc34)cs2)c(Cl)c1 [II-150] |
| < 500 nM | < 500 nM | CS(=O)(=O)Nc1ccc(F)c(CC(=O)Nc2nc(-c3c[nH]c4ncc(F)cc34)cs2)c1 [II-151] |
| < 500 nM | < 500 nM | O=C1C[C@H](C(=O)Nc2nc(-c3c[nH]c4ncccc34)cs2)N1 [II-152] |
| < 500 nM | < 500 nM | O=C(Nc1nc(-c2c[nH]c3ncccc23)cs1)C1CCCO1 (stereo not shown) [II-154] |
| < 500 nM | < 500 nM | O=C1CC[C@H](C(=O)Nc2nc(-c3c[nH]c4ncccc34)cs2)O1 [II-155] |
| < 500 nM | < 500 nM | O=C(Nc1nc(-c2c[nH]c3ncccc23)cs1)C1(O)CC1 [II-158] |
| < 500 nM | < 500 nM | CC(C)C(O)C(=O)Nc1nc(-c2c[nH]c3ncccc23)cs1 (stereo not shown) [II-159] |
| < 500 nM | < 500 nM | CC(C)CC(=O)C(=O)Nc1nc(-c2c[nH]c3ncccc23)cs1 [II-160] |
| < 500 nM | < 500 nM | CS(=O)(=O)CC(=O)Nc1nc(-c2c[nH]c3ncccc23)cs1 [II-161] |
| < 500 nM | < 500 nM | NCC(=O)Nc1nc(-c2c[nH]c3ncccc23)cs1 [II-165] |
| < 500 nM | < 500 nM | CC(C)C[C@H](N)C(=O)Nc1nc(-c2c[nH]c3ncccc23)cs1 [II-166] |
| < 500 nM | < 500 nM | CN1CCN(CCCS(=O)(=O)Nc2cccc(CC(=O)Nc3nc(-c4c[nH]c5ncccc45)cs3)c2)CC1 [II-167] |
| < 500 nM | < 500 nM | O=C(Cc1cccc(NS(=O)(=O)CCCN2CCCCC2)c1)Nc1nc(-c2c[nH]c3ncccc23)cs1 [II-168] |
| < 500 nM | < 500 nM | O=C(Cc1cccc(NS(=O)(=O)CCCN2CCOCC2)c1)Nc1nc(-c2c[nH]c3ncccc23)cs1 [II-169] |
| < 500 nM | < 500 nM | O=C(Nc1nc(-c2c[nH]c3ncccc23)cs1)[C@@H]1CCCN1 [II-171] |
| < 500 nM | < 500 nM | O=C(Nc1nc(-c2c[nH]c3ncccc23)cs1)C1CCOC1 (stereo not shown) [II-172] |
| < 500 nM | < 500 nM | O=C(Nc1nc(-c2c[nH]c3ncccc23)cs1)C1CCCNC1 (stereo not shown) [II-173] |
| < 500 nM | < 500 nM | O=C(Nc1nc(-c2c[nH]c3ncccc23)cs1)C1CCOCC1 [II-175] |
| < 500 nM | < 500 nM | N[C@@H](Cc1ccccc1)C(=O)Nc1nc(-c2c[nH]c3ncccc23)cs1 [II-176] |
| < 500 nM | < 500 nM | N[C@H](Cc1ccccc1)C(=O)Nc1nc(-c2c[nH]c3ncccc23)cs1 [II-177] |
| < 500 nM | < 500 nM | CN[C@@H](Cc1ccccc1)C(=O)Nc1nc(-c2c[nH]c3ncccc23)cs1 [II-178] |
